{"source": "patent US8569268B2", "about": "“Acrylate/methacrylate-based diblock copolymer/anthranilic diamide compositions for propagule coating” (E I du Pont de Nemours and Company, priority 2010, dated 2013)", "test_system": "Spodoptera frugiperda", "assay": "Laboratory test with 2nd instar larva of Spodoptera frugiperda on maize leaves", "type": "in vivo", "data": [{"smiles": "CNC(=O)c1cc(Cl)cc(C)c1NC(=O)c1cc(Br)nn1-c1ncccc1Cl", "note": "[Compound 2, 3-bromo-N-[4-chloro-2-methyl-6-[(methylamino)carbonyl]phenyl]-1-(3-chloro-2-pyridinyl)-1H-pyrazole-5-carboxamide]", "values": [{"measurement": "concentration needed to achieve 100% mortality within 72 h", "value": "0.037 micrograms per g of tissue"}, {"measurement": "concentration resulting in 50% mortality within 72 h", "value": "0.033 micrograms per g of leaf tissu"}]}]}
